{
  "source": "paper PMC6251811",
  "about": "(Acta Pharmaceutica Sinica. B, 2018)",
  "key": {"IRF7 mRNA": {"tested_on": "IRF7 mRNA", "experiment": "IRF7 mRNA quantitative PCR in SH-SY5Y cells", "assay_type": "cell-based, human", "details": "positive control niclosamide, IFN-α2a 1 h"}, "STAT3 phosphorylation": {"tested_on": "STAT3 phosphorylation", "details": "concentrations below 10 μmol/L; cited from earlier work"}, "Phospho-STAT1 (Tyr701) [1]": {"tested_on": "Phospho-STAT1 (Tyr701)", "experiment": "Western blot of STAT1 phosphorylation in HEK-Blue IFNα/β cells after IFN-α2a", "assay_type": "cell-based, human", "details": "niclosamide 10 μmol/L (Fig. 5B, Fig. S2)"}, "Phospho-STAT1 (Tyr701) [2]": {"tested_on": "Phospho-STAT1 (Tyr701)", "experiment": "Western blot of STAT1 phosphorylation in SH-SY5Y cells after IFN-α2a", "assay_type": "cell-based, human", "details": "niclosamide 10 μmol/L (Fig. 6B)"}, "[3]": {"tested_on": "type-I interferon signaling pathway", "experiment": "SEAP reporter gene assay in HEK-Blue IFNα/β cells stimulated with IFN-α2a", "assay_type": "cell-based", "details": "Homo sapiens"}},
  "data": [
    {"compound": "O=C(Nc1ccc([N+](=O)[O-])cc1Cl)c1cc(Cl)ccc1O", "note": "[niclosamide, Niclosamide]", "values": [
      {"measurement": "IRF7 level after compound plus IFN-α2a", "setting": "IRF7 mRNA", "result": "0.84±0.07", "unit": "folds"},
      {"measurement": "effect on STAT phosphorylation", "setting": "STAT3 phosphorylation", "result": "only inhibit STAT3 phosphorylation"},
      {"measurement": "effect on STAT1 phosphorylation", "setting": "Phospho-STAT1 (Tyr701) [1]", "result": "also inhibited STAT1 phosphorylation"},
      {"measurement": "effect on STAT1 phosphorylation", "setting": "Phospho-STAT1 (Tyr701) [2]", "result": "also inhibited STAT1 phosphorylation"},
      {"measurement": "IC50", "setting": "[3]", "result": 370, "unit": "nM"}
    ]}
  ]
}
